Results taken from ChEMBL document CHEMBL1125773, “Analogues of oxybutynin. Synthesis and antimuscarinic and bladder activity of some substituted 7-amino-1-hydroxy-5-heptyn-2-ones and related compounds” (1991).

What was measured:
[1] = species: Cavia porcellus; assay: Antimuscarinic effect determined by comparing ability to inhibit carbachol-induced guinea pig detrusor muscle contractions; assay type: functional
[2] = system: Cavia porcellus; assay: Effect on in vivo functional detrusor muscle contraction strength using guinea pig model of cystometrogram; design: species or system Muscle tissue
[3] = species: Cavia porcellus; assay: Duration of action at which functional detrusor muscle contraction strength was measured using guinea pig model of cystometrogram; design: species or system Muscle tissue

NCC#CCCC(=O)C(O)(c1ccccc1)C1CCCCC1 (stereo not drawn)
Kb [1]: 2100 nM

CCN(CC)CC#CCCC(=O)C(O)(c1ccccc1)c1ccccc1
Kb [1]: 70.7 nM

O=C(CCC#CCNCc1ccccc1)C(O)(c1ccccc1)C1CCCCC1 (stereo not drawn)
Kb [1]: 4200 nM

CCNCC#CCCC(=O)C(O)(c1ccc(F)cc1)C1CCCCC1 (stereo not drawn)
Kb [1]: 504 nM
Potency [2]: 1.8
Duration [3]: 116 min

CN(CC#CCCC(=O)C(O)(c1ccccc1)C1CCCCC1)CCc1ccccc1 (stereo not drawn)
Kb [1]: 551 nM
Potency [2]: >10

CN(C)CC#CCCC(=O)[C@@](O)(c1ccccc1)C1CCCCC1
Kb [1]: 209 nM
Potency [2]: 3.6
Duration [3]: 88 min

CNCC#CCCC(=O)C(O)(c1ccccc1)C1CCCCC1 (stereo not drawn)
Kb [1]: 71.2 nM
Potency [2]: 0.48
Duration [3]: 48 min

CN(C)CC#CC(CO)C(O)(c1ccccc1)C1CCCCC1 (stereo not drawn)
Kb [1]: 99.7 nM
Potency [2]: 7.38

CN(C)CC#CCCC(=O)C(O[Si](C)(C)C)(c1ccccc1)C1CCCCC1 (stereo not drawn)
Kb [1]: >5000 nM

CCN(CC)CC#CCCC(=O)C(C)(O)c1ccccc1 (stereo not drawn)
Kb [1]: 5200 nM

CN(C)CC#CCCC(=O)C(O)(c1ccccc1)C12CCC(CC1)CC2 (stereo not drawn)
Kb [1]: 115 nM
Potency [2]: 4.4

CC(C)NCC#CCCC(=O)C(O)(c1ccccc1)C1CCCCC1 (stereo not drawn)
Kb [1]: 292 nM
Potency [2]: 2.1
Duration [3]: 35 min

CN(C)CC#CCCC(=O)C(O)(c1ccccc1)C1CCC1 (stereo in doubt; (-)-14b)
Kb [1]: 149 nM
Potency [2]: 2.5
Duration [3]: 40 min

CN(C)CC#CCCC(=O)C(O)(c1ccccc1)C1CC1 (stereo not drawn)
Kb [1]: 35 nM
Potency [2]: 0.48
Duration [3]: 89 min

CC(C)C(O)(C(=O)CCC#CCN(C)C)c1ccccc1 (stereo not drawn)
Kb [1]: 18.3 nM
Potency [2]: 0.48
Duration [3]: 80 min

CCN(CC)CC#CCCC(=O)C(O)(c1ccccc1)C1CC1 (stereo not drawn)
Kb [1]: 58 nM
Potency [2]: 0.98
Duration [3]: 80 min

CCN(C)CC#CCCC(=O)C(O)(c1ccccc1)C1CCC1 (stereo not drawn)
Kb [1]: 7.5 nM
Potency [2]: 0.86
Duration [3]: 168 min

CC(C)N(CC#CCCC(=O)C(O)(c1ccccc1)C1CCCCC1)C(C)C (stereo not drawn)
Kb [1]: 260 nM
Potency [2]: 5.3
Duration [3]: 32 min

CCN(C)CC#CCCC(=O)C(O)(c1ccccc1)C1CCCCC1 (stereo not drawn)
Kb [1]: 37 nM
Potency [2]: 0.45
Duration [3]: 39 min

CC(CC#CCN(C)C)C(=O)C(O)(c1ccccc1)C1CCCCC1 (stereo not drawn)
Kb [1]: 163 nM
Potency [2]: 2.1
Duration [3]: 39 min

CCCCN(CC#CCCC(=O)C(O)(c1ccccc1)C1CCCCC1)CCC (stereo not drawn)
Kb [1]: 142 nM
Potency [2]: 2.6
Duration [3]: 74 min

CN(C)CC#CCCC(=O)C(O)(c1ccccc1)C12C[C@H]3C[C@@H](C1)C[C@@H](C2)C3 (stereo partly drawn)
Kb [1]: >5000 nM

CC(C)CC(O)(C(=O)CCC#CCN(C)C)c1ccccc1 (stereo not drawn)
Kb [1]: 30.5 nM
Potency [2]: 4.1

CCNCC#CCCC(=O)C(O)(c1ccccc1)c1ccccc1
Kb [1]: 200 nM
Potency [2]: 1.5
Duration [3]: 54 min

CCNCC#CCCC(=O)C(O)(c1ccccc1)C1CC1 (stereo not drawn)
Kb [1]: 224 nM
Potency [2]: 1.1
Duration [3]: 103 min

CN(C)CC#CCCC(=O)C(O)(C1CCCCC1)C1CCCCC1
Kb [1]: 169 nM
Potency [2]: 15.3

CN(C)CC#CCCC(=O)C(O)(c1ccccc1)C1CCCCC1 (stereo not drawn)
Kb [1]: 38.7 nM
Potency [2]: 0.48
Duration [3]: 126 min

CCNCC#CCCC(=O)C(O)(c1ccccc1)C1CCCCC1 (stereo not drawn)
Kb [1]: 232 nM
Potency [2]: 0.98
Duration [3]: 85 min

CCN(CC)CC#CCCC(=O)C(O)(c1ccccc1)C1CCCCC1 (stereo not drawn)
Kb [1]: 175 nM
Potency [2]: 2.8
Duration [3]: 30 min

CCN(CC)CC#CCCC(O)C(O)(c1ccccc1)C1CCCCC1 (stereo not drawn)
Kb [1]: 1600 nM
Potency [2]: 6.3
Duration [3]: 123 min

CN(CC#CCCC(=O)C(O)(c1ccccc1)C1CCCCC1)CCO (stereo not drawn)
Kb [1]: 257 nM

CN(C)CC#CCCC(=O)C(O)(c1ccccc1)C1CCCC1 (stereo not drawn)
Kb [1]: 2 nM
Potency [2]: 0.33
Duration [3]: 98 min

CN(C)CC#CCCC(=O)C(O)(c1ccccc1)C1CCC1 (single isomer, unassigned; (+))
Kb [1]: 6.2 nM
Potency [2]: 0.06
Duration [3]: 88 min

CN(C)Cc1ccc(CCC(=O)C(O)(c2ccccc2)C2CCCCC2)cc1 (stereo not drawn)
Kb [1]: 1900 nM

CN(C)CC#CCCC(=O)C(O)(c1ccc(F)cc1)C1CCCCC1 (stereo not drawn)
Kb [1]: 67.7 nM
Potency [2]: 0.9
Duration [3]: 104 min

CN(C)CC#CCCC(=O)C(O)(c1ccccc1)C1(C)CC1 (stereo not drawn)
Kb [1]: 24 nM
Potency [2]: 0.28
Duration [3]: 80 min

CCN(C)CC#CCCC(=O)C(O)(c1ccccc1)C1CC1 (stereo not drawn)
Kb [1]: 241 nM
Potency [2]: 1.3
Duration [3]: 127 min

CN(C)CCCCCC(=O)C(O)(c1ccccc1)C1CCCCC1 (stereo not drawn)
Kb [1]: 43 nM
Potency [2]: 1.27
Duration [3]: 294 min

CN(C)CC#CCCC(=O)C(O)(c1ccccc1)c1ccccc1
Kb [1]: 70.1 nM
Potency [2]: 0.59
Duration [3]: 45 min

CC(C)N(C)CC#CCCC(=O)C(O)(c1ccccc1)C1CCCCC1 (stereo not drawn)
Kb [1]: 267 nM
Potency [2]: 4.2
Duration [3]: 41 min

CCCCN(CC#CCCC(=O)C(O)(c1ccccc1)C1CCCCC1)CCCC (stereo not drawn)
Kb [1]: >5000 nM

CCN(CC#CCCC(=O)C(O)(c1ccccc1)C1CCCCC1)C(C)C (stereo not drawn)
Kb [1]: 217 nM
Potency [2]: 3.3
Duration [3]: 23 min

CN(C)CC#CCCC(=O)C(O)(c1ccccc1)C1CC2CCC1C2 (stereo not drawn)
Kb [1]: 90 nM
Potency [2]: 0.9
Duration [3]: 242 min

CN(C)CC#CCCC(=O)[C@](O)(c1ccccc1)C1CCCCC1
Kb [1]: 17 nM
Potency [2]: 0.19
Duration [3]: 257 min

CCNCC#CCCC(=O)C(O)(c1ccccc1)C1CC2CCC1C2 (stereo not drawn)
Kb [1]: 65 nM
Potency [2]: 1.1
Duration [3]: 165 min

CCN(C)CC#CCCC(=O)C(O)(c1ccccc1)c1ccccc1
Kb [1]: 75.4 nM
Potency [2]: 0.9
Duration [3]: 69 min

CCNCC#CCCC(=O)C(O)(c1ccccc1)C1CCC1 (stereo not drawn)
Kb [1]: 224 nM
Potency [2]: 1.1
Duration [3]: 103 min

CCN(CC)CC#CCCC(=O)C(O)(c1ccccc1)C1CCCC1 (stereo not drawn)
Kb [1]: 21 nM
Potency [2]: 3.1

CN(C)CC#CCCC(=O)C(O)(c1ccccc1)C1CCC1 (stereo in doubt; 14b)
Kb [1]: 4.9 nM
Potency [2]: 0.12
Duration [3]: 116 min
